Experimental data reported in patent US20250302961A1, “TARGETING MYELOID-DERIVED SUPPRESSOR CELLS (MDSCS) IN BLADDER CANCER TO ENHANCE EFFICACY OF ADOPTIVE CELL THERAPY (ACT)” (H. LEE MOFFITT CANCER CENTER AND RESEARCH INSTITUTE, INC., priority 2022, published 2025).

System: MB49-OVA bladder tumors
Experiment: Gemcitabine pretreatment and ACT with OT-I T-cells in orthotopic MB49-OVA bladder cancer model, tumor growth by ultrasound
Type: in vivo, C57BL/6 mice
Settings: intravesical 500 ug gemcitabine for 30 minutes, then 5×10^6 OT-I T-cells at day 4 (GEM+OT-I)
Protocol: For murine studies, orthotopic MB49-OVA bladder tumors were collected, stained for MDSCs, and analyzed by flow cytometry. Urine samples from bladder cancer patients were also collected and stained for MDSCs. From mice, purified MDSCs and OT-I T-cells were cocultured and from bladder cancer patients, purified urine MDSCs and CD3-stimulated peripheral blood T-cells were cocultured to assess suppression of T-cell proliferation or IFN-gamma secretion. Mice bearing MB49-OVA tumors were treated with intravesical instillation of gemcitabine and/or OT-I T-cells and tumor growth was monitored via ultrasound. C57BL/6 female mice were initially anesthetized and catheterized (Terumo), then pre-treated orthotopically with Poly-L-Lysine in PBS (50 uL at 1μg/mL) for 10 minutes. Then bladders were washed with 50 uL PBS and mice received intravesical instillation of 1×10^5 MB49-OVA murine bladder cancer cells for 30 minutes. Presence of bladder tumors were confirmed via the Vevo 2100 ultrasound system (FUJIFILM VisualSonics Inc.) 10 days after tumor inoculation and ultrasound was performed 1X per week until mice were euthanized. To evaluate whether targeting MDSCs with gemcitabine (GEM) improves transfer of T cells, C57BL/6 mice received intravesical instillation of MB49-OVA tumor cells and were monitored via ultrasound. Seven-ten days after intravesical instillation of tumor, mice were separated into three treatment groups and an untreated (UNTX) group. The gemcitabine group (GEM) and the combination gemcitabine and OT-I treatment group (GEM+OT-I) received intravesical instillation of 500 ug gemcitabine for 30 minutes. The OT-I treatment group (OT-I) and GEM+OT-I treatment groups received intravesical instillation of 5×10^6 OT-I T-cells for 3 hours at day 4 after instillation of Gem. Tumor growth was measured via ultrasound.

SMILES: Nc1ccn([C@@H]2O[C@H](CO)[C@@H](O)C2(F)F)c(=O)n1 [gemcitabine]
- anti-tumor response (tumor growth via ultrasound) (mice bearing large MB49-OVA tumors (>50 mm3)): improved anti-tumor response
- anti-tumor response (tumor growth via ultrasound) (mice bearing large MB49-OVA tumors (>50 mm3), listed as Gemcitabine): improves adoptive cell therapy (ACT)
- anti-tumor response (tumor growth via ultrasound) (mice bearing smaller MB49-OVA tumors (<50 mm3)): little added benefit to ACT
